Data taken from ChEMBL document CHEMBL3714717, “Family of PFKFB3 inhibitors with anti-neoplastic activities” (2013).
Calls of active or inactive are those of the source. The rule behind the calls is not given here.

How the values were obtained:
A549 = experiment: Growth inhibition of human A549 cells incubated for 48 hrs by trypan blue dye exclusion assay; type: functional, cell-based
HL-60 [1] = experiment: Growth inhibition of human HL60 cells incubated for 48 hrs by trypan blue dye exclusion assay; type: functional, cell-based
K562 = experiment: Growth inhibition of human K562 cells incubated for 48 hrs by trypan blue dye exclusion assay; type: functional, cell-based
MDA-MB-231 [2] = experiment: Growth inhibition of human MDA-MB-231 cells incubated for 48 hrs by trypan blue dye exclusion assay; type: functional, cell-based
Homo sapiens = organism: Homo sapiens; experiment: Growth inhibition of human CRL11174 cells incubated for 48 hrs by trypan blue dye exclusion assay; type: functional
Jurkat [3] = experiment: Inhibition of cell proliferation of human Jurkat cells incubated for 72 hrs by Alamar blue assay; type: functional, cell-based
NHBE [4] = experiment: Growth inhibition of human NHBE cells immortalized with human telomerase and large-T antigen and transformed with mutated Ras protein at 1 uM incubated for 48 to 72 hrs by trypan blue dye exclusion assay; type: functional, cell-based
MDA-MB-231 [5] = experiment: Antitumor activity against human MDA-MB-231 cells xenografted in Balb/c mouse assessed as tumor growth inhibition at 0.07 mg/g, ip dosed as cyclical regimen of 3 daily injections followed by 3 days of without treatment; type: functional
[6] = Potency index, ratio of IC50 for 2-DG to IC50 for test compound for growth inhibition of human NHBE cells immortalized with human telomerase and large-T antigen and transformed with mutated Ras protein at 1 uM incubated for 48 to 72 hrs by trypan blue dye exclusion assay; type: functional
Jurkat [7] = experiment: Reduction in NADH level in human Jurkat cells expressing inducible FLAG-tagged PFKFB at 10 uM after 16 hrs; type: functional, cell-based
Mus musculus [8] = experiment: Reduction in F2,6BP production excised tumor of C57B1/6 mouse transplanted with mouse LLC cells at 0.07 mg/g, ip after 4 hrs post dose; type: functional, organism-based
[9] = biological target: T1, 6-phosphofructo-2-kinase/fructose-2,6-bisphosphatase 3 (Homo sapiens, UniProt Q16875); experiment: Mixed type inhibition of human PFKFB3 expressed in Escherichia coli BL21 (DE3) assessed as reduction in NADH consumption using fructose-6-phosphate incubated for 15 mins by spectrophotometry based pyruvate kinase and LDH enzyme coupled kinetic assay
NHBE [10] = experiment: Growth inhibition of human NHBE cells immortalized with human telomerase and large-T antigen and transformed with mutated Ras protein at 10 uM incubated for 48 to 72 hrs by trypan blue dye exclusion assay; type: functional, cell-based
Jurkat [11] = experiment: Reduction in NAD+ level in human Jurkat cells expressing inducible FLAG-tagged PFKFB at 10 uM after 24 hrs; type: functional, cell-based
Jurkat [12] = experiment: Reduction in Fru-2,6-BP production in human Jurkat cells expressing inducible FLAG-tagged PFKFB at 10 uM measured within 4 hrs; type: functional, cell-based
Jurkat [13] = experiment: Potency index, ratio of IC50 for growth inhibition of PFKFB3+/+ht/LT/Ras human Jurkat cells to IC50 for growth inhibition of PFKFB3+/-ht/LT/Ras human Jurkat cells; type: functional
[14] = Antitumor activity against human HL60 cells xenografted in Balb/c mouse assessed as tumor growth inhibition at 0.07 mg/g, ip dosed as 2 sequential daily injections followed by 7 consecutive days of without treatment; type: functional, HL-60
Mus musculus [15] = experiment: Reduction in [18F]-2-DG uptake in tumor of C57B1/6 mouse transplanted with mouse LLC cells at 0.07 mg/g, ip after 30 mins post dose by micro-PET method; type: functional, organism-based
Mus musculus [16] = experiment: Reduction in [18F]-2-DG uptake in cardiac tissue of C57B1/6 mouse transplanted with mouse LLC cells at 0.07 mg/g, ip after 30 mins post dose by micro-PET method; type: functional, organism-based
Jurkat [17] = experiment: Reduction in 2-deoxy-glucose uptake in human Jurkat cells expressing inducible FLAG-tagged PFKFB at 10 uM measured within 4 hrs using [14C]-2-deoxy-glucose by scintillation counting method; type: functional, cell-based
Jurkat [18] = experiment: Inhibition of cell proliferation of human Jurkat cells expressing inducible FLAG-tagged PFKFB incubated for 48 hrs by trypan blue dye exclusion assay; type: functional, cell-based
[19] = Growth inhibition of human NHBE cells at 33 uM incubated for 48 to 72 hrs by trypan blue dye exclusion assay; type: cell-based
[20] = Potency index, ratio of IC50 for 3BrPA to IC50 for test compound for growth inhibition of human NHBE cells immortalized with human telomerase and large-T antigen and transformed with mutated Ras protein at 1 uM incubated for 48 to 72 hrs by trypan blue dye exclusion assay; type: functional
Jurkat [21] = experiment: […] cell cycle arrest in human Jurkat cells expressing inducible FLAG-tagged PFKFB assessed as accumulation at G2/M phase by propidium iodide staining based flow cytometry; type: functional
Jurkat [22] = experiment: Reduction in ATP level in human Jurkat cells expressing inducible FLAG-tagged PFKFB at 10 uM after 24 hrs; type: functional, cell-based
Jurkat [23] = experiment: Suppression of glycolytic flux into alanine in human Jurkat cells expressing inducible FLAG-tagged PFKFB at 10 uM after 36 hrs by NMR spectroscopy; type: functional, cell-based
Jurkat [24] = experiment: Reduction in lactate secretion in human Jurkat cells expressing inducible FLAG-tagged PFKFB at 10 uM after 8 hrs by lactate oxidase based colorimetric assay; type: functional, cell-based
Jurkat [25] = experiment: Suppression of glycolytic flux into lactate in human Jurkat cells expressing inducible FLAG-tagged PFKFB at 10 uM after 36 hrs by NMR spectroscopy; type: functional, cell-based
Jurkat [26] = experiment: Inhibition of cell proliferation of human Jurkat cells expressing inducible FLAG-tagged PFKFB at 10 uM incubated for 36 hrs by trypan blue dye exclusion assay; type: functional, cell-based
HL-60 [27] = experiment: Antitumor activity against human HL60 cells xenografted in Balb/c mouse assessed as tumor growth inhibition at 0.07 mg/g, ip dosed as 2 sequential daily injections followed by 7 consecutive days of without treatment and subsequent second dosing and measured on day9; type: functional, organism-based
[28] = Solubility in Cremophore:EToH:saline solution in normal conditions using Amber vials after 8 hrs by HPLC method (reference value: 1 mg/ml at 0 hrs); type: physicochemical
Lewis lung carcinoma = experiment: Antitumor activity against mouse LLC cells implanted in C57Bc16 mouse assessed as inhibition of tumor size at 25 mg/kg, ip dosed on days 1,2 and 3 and 35 mg/kg, ip on days Antitumor activity against mouse LLC cells implanted in C57Bc16 mouse assessed as inhibition of tumor size at 25 mg/kg, ip dosed on days 7,8,9,13,14 and 15; type: functional, organism-based
[29] = Solubility in Cremophore:EToH:saline solution in normal conditions using Amber vials after 2 hrs by HPLC method (reference value: 1 mg/ml at 0 hrs); type: physicochemical
[30] = Solubility in Cremophore:EToH:saline solution in normal conditions using Amber vials after 4 hrs by HPLC method (reference value: 1 mg/ml at 0 hrs); type: physicochemical
CT26 = experiment: Antitumor activity against mouse CT26 cells implanted in C57Bc16 mouse assessed as inhibition of tumor size at 20 or 23 mg/kg, ip measured during 7 to 22 days after tumor inoculation; type: functional, organism-based
U-87MG ATCC = experiment: Antitumor activity against human U87MG cells implanted in C57Bc16 mouse assessed as inhibition of tumor size at 20 mg/kg, ip measured during 7 to 25 days after tumor inoculation; type: functional, organism-based
[31] = biological target: T1, 6-phosphofructo-2-kinase/fructose-2,6-bisphosphatase 3; settings: 150 uM
Description: Inhibition of recombinant PFKFB3 (unknown origin) assessed as reduction in enzyme kinetic rate at 150 uM

T1 sequence (Q16875 whole entry): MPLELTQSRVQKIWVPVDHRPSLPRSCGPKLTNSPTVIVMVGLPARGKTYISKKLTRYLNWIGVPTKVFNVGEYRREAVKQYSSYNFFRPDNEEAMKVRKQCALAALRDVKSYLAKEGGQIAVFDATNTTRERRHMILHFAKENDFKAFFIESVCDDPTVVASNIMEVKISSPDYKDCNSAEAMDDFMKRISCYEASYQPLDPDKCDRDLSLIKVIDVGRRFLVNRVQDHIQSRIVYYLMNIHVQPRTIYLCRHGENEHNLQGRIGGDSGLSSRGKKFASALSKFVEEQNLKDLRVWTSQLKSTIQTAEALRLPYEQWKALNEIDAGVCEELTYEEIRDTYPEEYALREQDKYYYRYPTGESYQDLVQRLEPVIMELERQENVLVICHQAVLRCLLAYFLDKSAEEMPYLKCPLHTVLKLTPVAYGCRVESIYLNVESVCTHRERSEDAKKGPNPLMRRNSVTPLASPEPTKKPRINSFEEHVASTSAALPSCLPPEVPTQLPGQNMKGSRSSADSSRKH

O=C(/C=C/c1ccc(Cl)cc1)c1cccnc1
growth inhibition (GI) (A549): Active | growth inhibition (GI) (HL-60 [1]): Dose-dependent effect | growth inhibition (GI) (K562): Dose-dependent effect | growth inhibition (GI) (MDA-MB-231 [2]): Active | growth inhibition (GI) (Homo sapiens): Active

O=C(/C=C/c1cnc2ccccc2c1)c1ccncc1
IC50 (Jurkat [3]): > 4 µM

O=C(/C=C/c1cccnc1)c1ccncc1
growth inhibition (GI) (NHBE [4]): Active | Imax (MDA-MB-231 [5]): 64% | Ratio IC50 [6]: 10 | Activity (Jurkat [7]): Active | Activity (Mus musculus [8]): Active | Ki [9]: 25.1 µM | growth inhibition (GI) (NHBE [10]): Active | Activity (Jurkat [11]): Active | Activity (Jurkat [12]): Active | Ratio IC50 (Jurkat [13]): 2 | TGI [14]: >75% | Activity (Mus musculus [15]): Active | Activity (Mus musculus [16]): Active | Activity (Jurkat [17]): Active | inhibition (Jurkat [18]): Dose-dependent effect | Activity [19]: Non-toxic | Ratio IC50 [20]: 10 | Activity (Jurkat [21]): Active | Activity (Jurkat [22]): Active | Activity (Jurkat [23]): inactive | Activity (Jurkat [24]): Active | Activity (Jurkat [25]): Active | inhibition (Jurkat [26]): Active | TGI (HL-60 [27]): Active

CC(=O)Nc1ccc(/C=C/C(=O)c2ccncc2)cc1
growth inhibition (GI) (A549): Active | growth inhibition (GI) (HL-60 [1]): Active | growth inhibition (GI) (K562): Active | growth inhibition (GI) (MDA-MB-231 [2]): Active | growth inhibition (GI) (Homo sapiens): Active

O=C(/C=C/c1cccc2ccccc12)c1ccncc1
growth inhibition (GI) (A549): Active | growth inhibition (GI) (HL-60 [1]): Active | growth inhibition (GI) (K562): Active | growth inhibition (GI) (MDA-MB-231 [2]): Active | growth inhibition (GI) (Homo sapiens): Active

O=C(/C=C/c1ccccc1Cl)c1ccccn1
growth inhibition (GI) (A549): Active | growth inhibition (GI) (HL-60 [1]): Active | growth inhibition (GI) (K562): Active | growth inhibition (GI) (MDA-MB-231 [2]): Active | growth inhibition (GI) (Homo sapiens): Active

Cl.O=C(/C=C/c1ccc2cccc(O)c2n1)c1ccncc1
solubility at 8 h [28]: 1000 µg/mL | inhibition (Lewis lung carcinoma): Active | solubility at 2 h [29]: 1000 µg/mL | solubility at 4 h [30]: 1000 µg/mL

Cc1cccc2ccc(/C=C/C(=O)c3ccncc3)nc12
inhibition (CT26): Active | inhibition (U-87MG ATCC): Active

O=C(/C=C/c1ccc2ccccc2n1)c1cccnc1
growth inhibition (GI) (A549): Active | growth inhibition (GI) (HL-60 [1]): Active | inhibition [31]: > 80% | growth inhibition (GI) (K562): Active | growth inhibition (GI) (MDA-MB-231 [2]): Active | growth inhibition (GI) (Homo sapiens): Active

O=C(/C=C/c1ccccc1Cl)c1cccnc1
growth inhibition (GI) (A549): Active | growth inhibition (GI) (HL-60 [1]): Active | growth inhibition (GI) (K562): Active | growth inhibition (GI) (MDA-MB-231 [2]): Active | growth inhibition (GI) (Homo sapiens): Active
